Here are results for 8 compounds from patent publication US20090069417A1, “CAROTENOID OXIDATION PRODUCTS AS CHEMOPREVENTIVE AND CHEMOTHERAPEUTIC AGENTS” (priority 2005, published 2009).

Test [1] concerns antioxidant response element (ARE). Kind of test: ARE reporter gene (luciferase) assay, transient transfection. In kind it is cell-based, human. The note with it: FIG. 1, mean of 3-6 experiments, expressed as ratio to stimulation obtained with tBHQ, compared in words. The source says: ARE reporter constructs were provided by Dr. J. J. Gipp (University of Wisconsin Medical School, Madison, Wis.; Ref 18). NQO1hARE-tk-luc and GCShARE4-tk-luc contain sequences of the active response elements from the promoters of human NQO1 and GCS heavy subunit, respectively. GCShARE4m-tk-luc, a non-active mutant form of the latter construct, contains a single base mutation in the relevant sequence.
Cell transfection and reporter gene assays were generally carried out as follows. Some variations may be adopted for different cell lines: Cells were transfected using TFx-50 reagent (Promega, Madison, Wis.) with ca. 0.07 μg of DNA containing 0.05 μg of reporter plasmid and 0.02 μg of Renilla luciferase expression vector (P-RL-null vector, Promega) as an internal standard. For this purpose, cells were seeded in 24-well plates (100,000 cells per well). After 1 day, cells were rinsed twice with the appropriate culture medium without serum, followed by the addition of 0.2 mL of medium containing DNA and TFx-50 reagent at a charge ratio of 1:3. The cells were then incubated for 30 minutes at 37° C. in 95% air/5% CO2. Four hundred microliters of medium containing 3% charcoal-stripped delipidated FCS were added and incubation continued for 8 hours. This was then replaced by medium supplemented with 3% delipidated FCS and the test compounds and cells were incubated for another 16 hours. Cell extracts were prepared for luciferase reporter assay (Dual Luciferase Reporter Assay System, Promega) according to the manufacturer's instructions.
The effects of lycopene and several lycopene derivatives on antioxidant response element (ARE) induction were tested in all of the cancer cell lines mentioned above. The assay employed measures the transcriptional activity of the antioxidant response element which is activated by the Nrf2 transcription factor, and its activation by carotenoids and their derivatives. Parts of a promoter of the genes of interest were fused to a luciferase reporter gene as described in Materials and Methods. The constructs were transfected into the cells. Cells were incubated with carotenoids or derivatives and activation of transcription was measured.
The results are depicted in FIG. 1 as the mean of 3-6 experiments. The standard errors of the mean (SEs) (not shown) were not higher than 10% of the mean. In order to decrease the variation between experiments, the results are expressed as the ratio of stimulation obtained with each specific derivative to that obtained with tBHQ (a well known positive control in this system).
On the technique in general: A reporter such as luciferase makes a cellular process visible.

Test [2] deals with antioxidant response element (ARE) in MCF-7 and T47D cells. As to the kind of experiment: ARE induction in human breast cancer cell lines (FIG. 2A). In kind it is cell-based. The settings on record: compared with lycopene.
Protocol: Cell transfection and reporter gene assays were generally carried out as follows. Some variations may be adopted for different cell lines: Cells were transfected using TFx-50 reagent (Promega, Madison, Wis.) with ca. 0.07 μg of DNA containing 0.05 μg of reporter plasmid and 0.02 μg of Renilla luciferase expression vector (P-RL-null vector, Promega) as an internal standard. For this purpose, cells were seeded in 24-well plates (100,000 cells per well). After 1 day, cells were rinsed twice with the appropriate culture medium without serum, followed by the addition of 0.2 mL of medium containing DNA and TFx-50 reagent at a charge ratio of 1:3. The cells were then incubated for 30 minutes at 37° C. in 95% air/5% CO2. Four hundred microliters of medium containing 3% charcoal-stripped delipidated FCS were added and incubation continued for 8 hours. This was then replaced by medium supplemented with 3% delipidated FCS and the test compounds and cells were incubated for another 16 hours. Cell extracts were prepared for luciferase reporter assay (Dual Luciferase Reporter Assay System, Promega) according to the manufacturer's instructions. […]
For test [3], the system named is MCF-7 and T47D cells. As to the kind of experiment: Cell proliferation, [3H]thymidine incorporation, mammary cancer cells (FIG. 2B). In kind it is cell-based, human. The settings on record: compared with lycopene. As to the method: MCF-7, human mammary cancer cells were purchased from American Type Culture Collection (Rockwell, Md.). MCF-7 cells were grown in DMEM containing penicillin (100 units/mL), streptomycin (0.1 mg/mL), nystatin (12.5 Ag/mL), 0.6 μg/mL insulin, and 10% FCS. T47D, human mammary cancer cell line, were provided by Dr. Yafa Keidar (Tel-Aviv University, Israel) and were grown in DMEM medium. LNCaP human prostate cancer cells were purchased from American Type Culture Collection (Rockwell, Md.) and were grown on RPMI medium. The medium contained penicillin (100 U/ml), streptomycin (0.1 mg/ml) nystatin (12.5 μg/ml), and 10% fetal calf serum (FCS), and 6 μg/ml insulin. Prior to each experiment, the cells were depleted of steroid hormones and maintained for 3-5 days in phenol red-free DMEM supplemented with 10% DCC FCS.
MCF-7, LNCaP and T47D cells were seeded in 96-well plates. After one day, the medium was replaced with one containing the various materials. In each day of the experiment one plate was used for the thymidine incorporation assay. Thymidine incorporation was determined as follows: 2.5 μCi/well of [^3H]thymidine (specific radioactivity 5 mCi/mmol) containing cold thymidine (100 μM) was added and the plate were incubated (37° C.) for 1 hr (MCF-7 cells) or for 3 hr (LNCaP, T47D cells). […] Radioactivity was determined by a radioactive image analyzer (BAS 1000, Fuji, Japan). […]
(In general: Dividing cells build labelled thymidine or BrdU into new DNA.)

Test [4] concerns WB-F344 rat liver epithelial cells. The note with it: cited from earlier work.
The subject of test [5] is mammary, endometrial, lung and leukemic cancer cell growth. The settings on record: lung and leukemic cancer cells, dose-dependent, read-out: IC50, inhibition of cancer cell growth; cited from earlier work.
Test [6] deals with reporter genes fused with ARE sequences. The settings on record: transiently transfected cancer cells; cited from earlier work.
For test [7], the system named is HL-60 human promyelocytic leukemia cells. The settings on record: HL-60 cells; cited from earlier work.

As for `C\C(C=O)=C/C=C/C=C(C)/C=C/C=C(\C)C=O` [8′,12, diapo-8′,12-lycopendial], the “stimulation of transcription of ARE reporter genes” value (“stimulation … of ARE reporter genes” below) is given as “more active than the parent molecule lycopene” in test [1] and “most active” in test [1] (listed as 8′12).

`CC(/C=C/C=O)=C\C=C\C=C(C)\C=C\C=O` [10,10′, diapo-10,10′-lycopendial]: the entries for the “stimulation … of ARE reporter genes” value in test [1] and in test [1] (listed as 10′10) were “more active than the parent molecule lycopene” and “most active”, respectively. The ARE induction result in test [2] was “more active than lycopene”. For the same compound, in test [3], the “inhibition of cell proliferation” value is given as “more active than lycopene”.

On to `C\C(C=O)=C/C=C/C=C(C)/C=C/C=C(C)/C=C/C=O` [2,7,11-trimethyl-tetradecahexaene-1,14-dial], for which the “stimulation of gap junctional communication (GJC)” value in test [4] was “stimulates gap junctional communication”.

For the compound `C\C(C=O)=C/C=C/C(C)=C/C=C/C=C(C)/C=C/C=C(\C)C=O` [8,8′, diapo-8,8′-lycopendial], the “stimulation … of ARE reporter genes” value in test [1] is “much less active”. In addition, the ARE induction entry in test [2] is recorded as “less active”. Besides, in test [3], the “inhibition of cell proliferation” value is reported as “less active”.

For diapo-8′,15-lycopendial, the “stimulation … of ARE reporter genes” value is recorded as “more active than the parent molecule lycopene” in test [1] and “also active” in test [1] (listed as 8′15).

The term IC50 denotes the concentration that inhibits the measured activity by half. On to `CC(C)=CCC/C(C)=C/C=C/C(C)=C/C=C/C(C)=C/C=C/C=C(C)/C=C/C=C(C)/C=C/C=C(\C)CCC=C(C)C` [lycopene, Lycopene], for which the IC50 in test [5] is about 2000 nM. Further, the “transactivation of ARE reporter genes” value in test [6] is on record as “capable of transactivating the expression of reporter genes fused with ARE sequences”.

Regarding `C\C(C=O)=C/C=C/C=C(\C)C=O` [12,12′, diapo-12,12′-lycopendial], in test [1], the “stimulation … of ARE reporter genes” value is “much less active”.

As to `CC(=O)/C=C/C=C(C)/C=C/C=O` [(E,E,E)-4-methyl-8-oxo-2,4,6-nonatrienal], in test [7], the induction of apoptosis entry is reported as “induces apoptosis”.
